Organism: Rattus norvegicus
Test: Open TG-GATES - Regimen: Daily Repeat
Format: toxicity, organism-based, Sprague-Dawley
Set-up: regimen Daily Repeat, gender Male, age 6 weeks
Conditions: in vivo, po, 0 mg/kg, route gavage, dose level Control; for APTT / Bas / Eos / Fbg / Hb / Ht / Lym / MCH / MCHC / MCV / Mono / Neu / PT / Plat / RBC / Ret / WBC: tissue Blood; for KIDNEY_L / KIDNEY_R / KIDNEY_TOTAL: tissue Kidney; for LIVER: tissue Liver; for A/G / ALP / ALT / AST / BUN / CRE / Ca / Cl / DBIL / GLC / IP / K / LDH / Na / PL / RALB / TBIL / TC / TG / TP / gamma-GTP: tissue Plasma

Structure (SMILES): CCO [ALCOHOL]
- TERMINAL_BW (72 h, time 3 day): 232.9 g
- APTT (72 h, time 3 day): 17.2 s
- Bas (72 h, time 3 day): 0%
- Eos (72 h, time 3 day): 1%
- Fbg (72 h, time 3 day): 205.6 mg/dL
- Hb (72 h, time 3 day): 14.1 g/dL
- Ht (72 h, time 3 day): 41.9%
- Lym (72 h, time 3 day): 77%
- MCH (72 h, time 3 day): 21.5 pg
- MCHC (72 h, time 3 day): 33.7%
- MCV (72 h, time 3 day): 63.8 fL
- Mono (72 h, time 3 day): 6%
- Neu (72 h, time 3 day): 16%
- PT (72 h, time 3 day): 11 s
- Plat (72 h, time 3 day): 112.5 x10_4/uL
- RBC (72 h, time 3 day): 656.4 x10_4/ul
- Ret (72 h, time 3 day): 6.7%
- WBC (72 h, time 3 day): 82.3 x10_2/uL
- KIDNEY_L (72 h, time 3 day): 1 g
- KIDNEY_R (72 h, time 3 day): 1 g
- KIDNEY_TOTAL (72 h, time 3 day): 2 g
- LIVER (72 h, time 3 day): 11.2 g
- A/G (72 h, time 3 day): 2.2
- ALP (72 h, time 3 day): 935.2 IU/L
- ALT (72 h, time 3 day): 39.6 IU/L
- AST (72 h, time 3 day): 61.8 IU/L
- BUN (72 h, time 3 day): 19.6 mg/dL
- CRE (72 h, time 3 day): 0.6 mg/dL
- Ca (72 h, time 3 day): 10.9 mg/dL
- Cl (72 h, time 3 day): 104.2 meq/L
- DBIL (72 h, time 3 day): 0.04 mg/dL
- GLC (72 h, time 3 day): 210.6 mg/dL
- IP (72 h, time 3 day): 8.7 mg/dL
- K (72 h, time 3 day): 4.6 meq/L
- LDH (72 h, time 3 day): 75.8 IU/L
- Na (72 h, time 3 day): 141 meq/L
- PL (72 h, time 3 day): 160.6 mg/dL
- RALB (72 h, time 3 day): 3.9 g/dL
- TBIL (72 h, time 3 day): 0.3 mg/dL
- TC (72 h, time 3 day): 83.8 mg/dL
- TG (72 h, time 3 day): 101 mg/dL
- TP (72 h, time 3 day): 5.7 g/dL
- gamma-GTP (72 h, time 3 day): 1.2 IU/L
- TERMINAL_BW ([…], time 7 day): 263.1 g
- TERMINAL_BW ([…], time 14 day): 302.6 g
- TERMINAL_BW ([…], time 28 day): 359.3 g
- APTT ([…], time 7 day): 17 s
- Bas ([…], time 7 day): 0%
- Eos ([…], time 7 day): 1.2%
- Fbg ([…], time 7 day): 212.6 mg/dL
- Hb ([…], time 7 day): 14.2 g/dL
- Ht ([…], time 7 day): 42.2%
- Lym ([…], time 7 day): 84.2%
- MCH ([…], time 7 day): 20.7 pg
- MCHC ([…], time 7 day): 33.7%
- MCV ([…], time 7 day): 61.5 fL
- Mono ([…], time 7 day): 4%
- Neu ([…], time 7 day): 10.6%
- PT ([…], time 7 day): 11.1 s
- Plat ([…], time 7 day): 127.1 x10_4/uL
- RBC ([…], time 7 day): 687.8 x10_4/ul
- Ret ([…], time 7 day): 5.2%
- WBC ([…], time 7 day): 114.9 x10_2/uL
- APTT ([…], time 14 day): 19.1 s
- Bas ([…], time 14 day): 0%
- Eos ([…], time 14 day): 1%
- Fbg ([…], time 14 day): 211.2 mg/dL
- Hb ([…], time 14 day): 15.2 g/dL
- Ht ([…], time 14 day): 44.7%
- Lym ([…], time 14 day): 81.4%
- MCH ([…], time 14 day): 20.3 pg
- MCHC ([…], time 14 day): 33.9%
- MCV ([…], time 14 day): 59.9 fL
- Mono ([…], time 14 day): 4.2%
- Neu ([…], time 14 day): 13.4%
- PT ([…], time 14 day): 11.4 s
- Plat ([…], time 14 day): 110 x10_4/uL
- RBC ([…], time 14 day): 746.4 x10_4/ul
- Ret ([…], time 14 day): 4.3%
- WBC ([…], time 14 day): 102.7 x10_2/uL
- APTT ([…], time 28 day): 17 s
- Bas ([…], time 28 day): 0%
- Eos ([…], time 28 day): 1.6%
- Fbg ([…], time 28 day): 215.6 mg/dL
- Hb ([…], time 28 day): 15.4 g/dL
- Ht ([…], time 28 day): 45.5%
- Lym ([…], time 28 day): 82%
- MCH ([…], time 28 day): 19.1 pg
- MCHC ([…], time 28 day): 33.9%
- MCV ([…], time 28 day): 56.4 fL
- Mono ([…], time 28 day): 5.4%
- Neu ([…], time 28 day): 11%
- PT ([…], time 28 day): 11.2 s
- Plat ([…], time 28 day): 114.3 x10_4/uL
- RBC ([…], time 28 day): 807 x10_4/ul
- Ret ([…], time 28 day): 8%
- WBC ([…], time 28 day): 105.1 x10_2/uL
- KIDNEY_L ([…], time 7 day): 1.1 g
- KIDNEY_R ([…], time 7 day): 1.2 g
- KIDNEY_TOTAL ([…], time 7 day): 2.3 g
- KIDNEY_L ([…], time 14 day): 1.2 g
- KIDNEY_R ([…], time 14 day): 1.2 g
- KIDNEY_TOTAL ([…], time 14 day): 2.4 g
- KIDNEY_L ([…], time 28 day): 1.3 g
- KIDNEY_R ([…], time 28 day): 1.3 g
- KIDNEY_TOTAL ([…], time 28 day): 2.6 g
- LIVER ([…], time 7 day): 11.9 g
- LIVER ([…], time 14 day): 13.2 g
- LIVER ([…], time 28 day): 13.9 g
- A/G ([…], time 7 day): 2.2
- ALP ([…], time 7 day): 783 IU/L
- ALT ([…], time 7 day): 33.6 IU/L
- AST ([…], time 7 day): 62 IU/L
- BUN ([…], time 7 day): 20.4 mg/dL
- CRE ([…], time 7 day): 0.5 mg/dL
- Ca ([…], time 7 day): 10.4 mg/dL
- Cl ([…], time 7 day): 105.6 meq/L
- DBIL ([…], time 7 day): 0.006 mg/dL
- GLC ([…], time 7 day): 197.8 mg/dL
- IP ([…], time 7 day): 7.5 mg/dL
- K ([…], time 7 day): 4.7 meq/L
- LDH ([…], time 7 day): 81.2 IU/L
- Na ([…], time 7 day): 141.4 meq/L
- PL ([…], time 7 day): 143.6 mg/dL
- RALB ([…], time 7 day): 4 g/dL
- TBIL ([…], time 7 day): 0.4 mg/dL
- TC ([…], time 7 day): 71.4 mg/dL
- TG ([…], time 7 day): 108 mg/dL
- TP ([…], time 7 day): 5.7 g/dL
- gamma-GTP ([…], time 7 day): 0.8 IU/L
- A/G ([…], time 14 day): 1.9
- ALP ([…], time 14 day): 678.2 IU/L
- ALT ([…], time 14 day): 30 IU/L
- AST ([…], time 14 day): 61.8 IU/L
- BUN ([…], time 14 day): 19 mg/dL
- CRE ([…], time 14 day): 0.5 mg/dL
- Ca ([…], time 14 day): 10.6 mg/dL
- Cl ([…], time 14 day): 105.6 meq/L
- DBIL ([…], time 14 day): 0.028 mg/dL
- GLC ([…], time 14 day): 204.6 mg/dL
- IP ([…], time 14 day): 7.3 mg/dL
- K ([…], time 14 day): 4.4 meq/L
- LDH ([…], time 14 day): 80.2 IU/L
- Na ([…], time 14 day): 142.6 meq/L
- PL ([…], time 14 day): 138.6 mg/dL
- RALB ([…], time 14 day): 3.8 g/dL
- TBIL ([…], time 14 day): 0.4 mg/dL
- TC ([…], time 14 day): 64.4 mg/dL
- TG ([…], time 14 day): 120.6 mg/dL
- TP ([…], time 14 day): 5.9 g/dL
- gamma-GTP ([…], time 14 day): 0.6 IU/L
- A/G ([…], time 28 day): 1.5
- ALP ([…], time 28 day): 606.4 IU/L
- ALT ([…], time 28 day): 32 IU/L
- AST ([…], time 28 day): 61.2 IU/L
- BUN ([…], time 28 day): 20.4 mg/dL
- CRE ([…], time 28 day): 0.6 mg/dL
- Ca ([…], time 28 day): 10.5 mg/dL
- Cl ([…], time 28 day): 107 meq/L
- DBIL ([…], time 28 day): 0 mg/dL
- GLC ([…], time 28 day): 219.2 mg/dL
- IP ([…], time 28 day): 6.1 mg/dL
- K ([…], time 28 day): 4.3 meq/L
- LDH ([…], time 28 day): 81.2 IU/L
- Na ([…], time 28 day): 140.8 meq/L
- PL ([…], time 28 day): 148 mg/dL
- RALB ([…], time 28 day): 3.7 g/dL
- TBIL ([…], time 28 day): 0.2 mg/dL
- TC ([…], time 28 day): 76.2 mg/dL
- TG ([…], time 28 day): 148.8 mg/dL
- TP ([…], time 28 day): 6.1 g/dL
- gamma-GTP ([…], time 28 day): 1.6 IU/L
